PMC8236845
Structures can show the parent of a compound that is named as a salt.

Biological target: binding of recombinant, trimeric SARS-CoV-2 spike protein to recombinant human ACE2 (Severe acute respiratory syndrome coronavirus 2, UniProt P0DTC2, K986P/R682G/R683S/R685S/V987P)
Test: biochemical
Set-up: species or system SARS-CoV-2 / human

`Cc1cn(-c2cc(NC(=O)c3ccc(C)c(Nc4nccc(-c5cccnc5)n4)c3)cc(C(F)(F)F)c2)cn1.Cl` [Nilotinib HCl, Nilotinib Hydrochloride] was tested, and the “% Inhibition” value was 99%.

`Nc1nc(N)c2nc(-c3ccccc3)c(N)nc2n1` [Triamterene] was tested, and the “% Inhibition” value was 91%.

With `COC(=O)N[C@H](C(=O)N1CCC[C@H]1C(=O)Nc1ccc([C@@H]2CC[C@@H](c3ccc(NC(=O)[C@@H]4CCCN4C(=O)[C@@H](NC(=O)OC)C(C)C)cc3)N2c2ccc(C(C)(C)C)cc2)cc1)C(C)C` [Ombitasvir (ABT-267), Ombitasvir] the “% Inhibition” value was 92%.

For `CN1CC(=O)N2[C@H](c3ccc4c(c3)OCO4)c3[nH]c4ccccc4c3C[C@@H]2C1=O` [Tadalafil], the “% Inhibition” value was 96%.

For `CN1C[C@H](C(=O)N[C@]2(C)O[C@@]3(O)[C@@H]4CCCN4C(=O)[C@H](Cc4ccccc4)N3C2=O)C[C@@H]2c3cccc4[nH]cc(c34)C[C@H]21` [Dihydroergotamine Mesylate], the “% Inhibition” value was 94%.

For `Cc1ccc(-c2cc(C(F)(F)F)nn2-c2ccc(S(N)(=O)=O)cc2)cc1` [Celecoxib], the “% Inhibition” value was 93% and the IC50 was 61.5 µM.

With `Cc1c(O)cccc1C(=O)N[C@@H](CSc1ccccc1)[C@H](O)CN1C[C@H]2CCCC[C@H]2C[C@H]1C(=O)NC(C)(C)C` [Nelfinavir Mesylate] the “% Inhibition” value was 94%.

With Ivermectin the “% inhibition in first-round screen” value was 89%.

In the case of `COC[C@H]1C[C@@H](c2nc(-c3ccc4c(c3)COc3cc5c(ccc6nc([C@@H]7CC[C@H](C)N7C(=O)[C@@H](NC(=O)OC)C(C)C)[nH]c65)cc3-4)c[nH]2)N(C(=O)[C@H](NC(=O)OC)c2ccccc2)C1` [Velpatasvir], the “% Inhibition” value is reported as 93%.

`C[C@@H](O[C@H]1OCCN(Cc2n[nH]c(=O)[nH]2)[C@H]1c1ccc(F)cc1)c1cc(C(F)(F)F)cc(C(F)(F)F)c1` [Aprepitant] was tested, and the “% Inhibition” value was 94%.

For Avermectin B1, the “% Inhibition” value was 98%.

With `COc1ccc2cc1Oc1ccc(cc1)C[C@H]1c3c(cc4c(c3Oc3cc5c(cc3OC)CCN(C)[C@@H]5C2)OCO4)CCN1C` [Cepharanthine] the “% Inhibition” value was 94%.

With `CO[C@H]1C(=O)[C@]2(C)[C@@H](OC)C[C@H]3OC[C@@]3(OC(C)=O)[C@H]2[C@H](OC(=O)c2ccccc2)[C@]2(O)C[C@H](OC(=O)[C@H](O)[C@@H](NC(=O)OC(C)(C)C)c3ccccc3)C(C)=C1C2(C)C` [Cabazitaxel] the “% Inhibition” value was 86%.

With `CC(=O)O[C@@]12CO[C@@H]1C[C@H](O)[C@@]1(C)C(=O)[C@H](O)C3=C(C)[C@@H](OC(=O)[C@H](O)[C@@H](NC(=O)OC(C)(C)C)c4ccccc4)C[C@@](O)([C@@H](OC(=O)c4ccccc4)[C@H]21)C3(C)C` [Docetaxel] the “% Inhibition, Screen” value was 98%.

With `CN1CCN(c2ccc(C(=O)Nc3n[nH]c4ccc(Cc5cc(F)cc(F)c5)cc34)c(NC3CCOCC3)c2)CC1` [Entrectinib] the “% Inhibition” value was 90% and the IC50 was 58.4 µM.

For `CON=C(C(=O)NC1C(=O)N2C(C(=O)OCOC(=O)C(C)(C)C)=C(C)CSC12)c1csc(N)n1` (centres unmarked) [Cefetamet Pivoxil Hydrochloride], the “% Inhibition” value was 94%.

`CCCCCCCCN=c1ccn(CCCCCCCCCCn2ccc(=NCCCCCCCC)cc2)cc1` [Octenidine Dihydrochloride] was tested, and the “% Inhibition” value was 100%.

With `COc1ccc(CN=c2[nH]c(N3CCC[C@H]3CO)ncc2C(=O)NCc2ncccn2)cc1Cl` [Avanafil] the “% Inhibition” value was 99%.
